Source: patent US5292736A, “Morpholinoalkylindenes as antiglaucoma agents” (Sterling Winthrop Inc., priority 1993, dated 1994)
Where two headings read alike, the source gives them in different places.

Assays:
[1] = tested on: mouse vas deferens; test: mouse vas deferens test (MVD), screening for analgesic activity; type: cell-based; settings: considered active at 5.0 μM or less
Description: (§1) In standard biological test procedures, compounds of formula I were tested for analgesic and cannabinoid receptor activity. The mouse vas deferens test correlates well with analgesic activity and has long been used to screen for such activity. Cannabinoid receptor binding is characteristic and predictive of the efficacy of intraocular pressure reducing compounds and was thus used to test the compounds of formula I for antiglaucoma activity.
The mouse vas deferens test (MVD), a means of screening for analgesic activity, is disclosed in U.S. Pat. No. 4,840,950, which is incorporated herein by reference.

[2] = tested on: acetylcholine-induced abdominal constriction; test: acetylcholine-induced abdominal constriction test (ACH), oral; type: in vivo; settings: oral administration
Excerpt: Data obtained by the oral administration of the invention in the acetylcholine-induced abdominal constriction test (ACH), a measure of analgesic effectiveness, are expressed in the table below as the ED50 in mg/kg or as the percent inhibition at a given dose level in mg/kg. The acetyl choline-induced abdominal constriction test (ACH) is described in Brit. J. Pharmacol., 32: 295 (1968) and U.S. Pat. No. 4,581,534, incorporated herein by reference.

[3] = biological target: T1, cannabinoid receptor (Rattus norvegicus, UniProt P20272); test: cannabinoid receptor binding test (CR), predictive of antiglaucoma activity
T1 construct: Brain tissue from rats was homogenized; from tissue; host or cells: rat brain, washed homogenate membranes
Description: as §1
Data from the cannabinoid receptor binding test (CR), predictive of antiglaucoma activity, was obtained as follows:
Brain tissue from rats was homogenized in ice cold 20 mM HEPES-NaOH, pH 7.0, diluted approximately 1:100 (w/v) with the same buffer and centrifuged at 48,000 g for 10 minutes at 4° C. The pellet was washed by resuspension and centrifugation as above. The final pellet was suspended (1:120 w/v) in 20 mM HEPES-NaOH, pH 7.0 and stored on ice for use within 1 hour.
Compounds (10 mM) were solubilized in a mixture of 0.3 N methane sulfonic acid - 13.5% ethanol. Cannabinoids were dissolved in absolute ethanol. Other compounds were dissolved in dimethylsulfoxide (DMSO). All compounds were diluted in 20 mM HEPES, pH 7.0 containing 5 mg/ml bovine serum albumin (BSA).
The final assay concentration of BSA was 1.0 mg/ml in these experiments. Final assay concentrations of ≤50 mM ethanol, ≤1×10^-3 N methane sulfonic acid, ≤2.5 mM ethanol+3×10^-4 N methane sulfonic acid or ≤3% DMSO had no effect on specific binding. The possible effects of all vehicles were controlled in each assay.
The assay was started with the addition of homogenate and the tubes incubated at 30° C. for 90 min in a shaking waterbath. Each tube contained 20 mM HEPES-NaOH buffer, pH 7.0, 1.0 mg/ml BSA, competing drug or vehicle, and 100-125 μg membrane protein in a 1 ml incubation volume. Saturation studies were conducted over 3 log units of radioligand concentration (0.1-22 nM). Specific binding was defined as the difference in binding in the presence and absence of 1.0 μM unlabeled 2-[(3-chloro-4-hydroxyphenyl)amino]benzene methanol, a molecule that is known to […] bind to cannabinoid receptors.
Samples were filtered over Whatman GF/B filters with 20 ml of 20 mM HEPES, pH 7.0, containing 0.5 mg/ml BSA. Radioactivity on the filters, expressed in dpm, was measured by liquid scintillation spectrometry. Assays were conducted in triplicate and experiments were repeated at least three times.
The results for the CR test are IC50 concentrations (in nM) or % inhibition at 1 μM and 30 μM concentrations.

[4] = 1 μM; rat brain membranes, pH 7.0, 30° C., 90 min
[5] = 30 μM; rat brain membranes, pH 7.0, 30° C., 90 min
[6] = rat brain membranes, pH 7.0, 30° C., 90 min; read-out: CR IC50

T1 sequence (P20272 whole entry): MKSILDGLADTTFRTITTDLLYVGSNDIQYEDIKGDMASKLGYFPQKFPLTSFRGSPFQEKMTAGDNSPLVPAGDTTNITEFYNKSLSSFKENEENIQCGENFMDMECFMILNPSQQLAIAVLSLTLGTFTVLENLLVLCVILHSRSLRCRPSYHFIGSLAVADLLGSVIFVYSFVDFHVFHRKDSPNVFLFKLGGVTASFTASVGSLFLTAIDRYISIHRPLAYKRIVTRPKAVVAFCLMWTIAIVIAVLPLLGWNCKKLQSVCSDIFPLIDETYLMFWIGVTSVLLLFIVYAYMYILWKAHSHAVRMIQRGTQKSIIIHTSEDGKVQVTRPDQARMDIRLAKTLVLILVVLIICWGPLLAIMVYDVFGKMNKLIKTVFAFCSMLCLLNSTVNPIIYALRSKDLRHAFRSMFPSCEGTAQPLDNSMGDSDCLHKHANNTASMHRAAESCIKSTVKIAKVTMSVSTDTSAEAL

| SMILES | IC50 [1] | ED50 [2] | inhibition at 1 µM [3, 4] | Ach percent inhibition at 100 mg/kg [2] | further results |
| --- | --- | --- | --- | --- | --- |
| COc1ccc(C=C2C=C(CCN3CCOCC3)c3ccccc32)cc1 [Example 1, 4-[2-[1-[(4-methoxyphenyl)methylene]-1H-inden-3-yl)ethyl]morpholine] | 80 nM | 46 mg/kg | – | – | IC50 ([3]; read-out: CR IC50; rat brain membranes, pH 7.0, 30° C., 90 min): 58 nM |
| C(=C1C=C(CCN2CCOCC2)c2ccccc21)c1ccccc1 [Example 2] | 79 nM | 65 mg/kg | 33% | – | – |
| COc1ccc(C=C2C(C)=C(CCN3CCOCC3)c3ccccc32)cc1 [Example 3] | – | – | 45% | 30% | – |
| CSc1ccc(C=C2C=C(CCN3CCOCC3)c3ccccc32)cc1 [Example 4] | – | 50 mg/kg | 96% | – | – |
| Fc1ccc(C=C2C=C(CCCN3CCOCC3)c3ccccc32)cc1 [Example 5] | – | 52 mg/kg | – | – | inhibition at 30 µM [3, 5]: 5% |
| CN(C)c1ccc(C=C2C=C(CCN3CCOCC3)c3ccccc32)cc1 [Example 6] | – | 103 mg/kg | – | – | inhibition at 30 µM [3, 5]: 88% |
| Fc1ccccc1C=C1C=C(CCN2CCOCC2)c2ccccc21 [Example 7] | – | 86 mg/kg | – | – | inhibition at 30 µM [3, 5]: 78% |
| COc1ccc(C=C2C=C(CCN3CCOCC3)c3ccccc32)c2ccccc12 [Example 8] | 8 nM | 3.2 mg/kg | – | – | IC50 [3, 6]: 0.9 nM |
| C(=C1C=C(CCN2CCOCC2)c2ccccc21)c1cccc2ccccc12 [Example 9] | 7 nM | – | – | – | Ach percent inhibition at 10 mg/kg ([2]; 10 mg/kg): 83%; IC50 [3, 6]: 1 nM |
| CC1=C(CCN2CCOCC2)c2ccccc2C1=Cc1cccc2ccccc12 [Example 10] | 45 nM | 34 mg/kg | – | – | IC50 [3, 6]: 10 nM |
| CC1=C(CCN2CCOCC2)c2ccccc2C1=Cc1ccnc2ccccc12 [Example 11] | 1650 nM | – | – | 40% | – |
| C(=C1C=C(CCCN2CCOCC2)c2ccccc21)c1cccc2ccccc12 [Example 12] | 96 nM | – | 97% | 30% | – |
| COc1ccc(C=C2C=C(CCN3CCOCC3)c3ccccc32)cc1OC [Example 13] | 19 nM | 19 mg/kg | – | – | IC50 [3, 6]: 28 nM |
| C(=Cc1ccccc1)C=C1C=C(CCN2CCOCC2)c2ccccc21 [Example 14] | – | – | 68% | 20% | – |
| COc1ccc(C=C2C=C(CCCN3CCOCC3)c3ccccc32)c2ccccc12 [Example 15] | – | – | – | 10% | IC50 [3, 6]: 12 nM |
| COc1ccc(C=C2C(C)=C(CCN3CCOCC3)c3ccccc32)c2ccccc12 [Example 16] | 350 nM | – | – | 30% | – |
| N#Cc1ccc(C=C2C=C(CCN3CCOCC3)c3ccccc32)cc1 [Example 17] | – | 100 mg/kg | 76% | – | – |
| C(=C1C=C(CCN2CCOCC2)c2ccccc21)c1cccc2[nH]ccc12 [Example 18] | 310 nM | 15 mg/kg | – | – | – |
| Oc1ccc(C=C2C=C(CCN3CCOCC3)c3ccccc32)c2ccccc12 [Example 19] | – | 2.7 mg/kg | 97% | – | – |
| C(=C1C=C(CCN2CCOCC2)c2ccccc21)c1c2ccccc2cc2ccccc12 [Example 20] | 812 nM | – | – | – | – |
| C[S+]([O-])c1ccc(C=C2C=C(CCN3CCOCC3)c3ccccc32)cc1 (centres unmarked) [Example 21, 4-[2-[[1-[4-(methylsulfinyl)phenyl]methylene]-1H-inden-3-yl]ethyl]morpholine] | 193 nM | 25 mg/kg | – | – | – |
| COc1ccc(C(=O)OC(=C2C=C(CCN3CCOCC3)c3ccccc32)c2ccc(OC)cc2)cc1 [Example 22, (4-methoxyphenyl)[3-(2-[4-morpholinyl)ethyl)-1H-inden-1-ylidine]methyl 4-methoxy benzoate] | – | – | 51% | 10% | – |
